Experimental data from patent publication EP1914304A1 (priority 1998, dated 1999).

Key:
Test in all cases: Cell killing by GCV and ACV, Alamar Blue viability (ED50)
Format in all cases: cell-based, baby hamster
Details in all cases: Mesocricetus auratus, 96 h; effective dose for 50% cell killing, after 4 days on nucleoside analog, pooled G418 resistant clones
[1] = system: ts13 BHK tk- cells transfected with pCMV:132 (HSV-1 TK mutant 132)
Procedure: (§1) Briefly, the cell transfections are performed as follows. Approximately 5 x 10^5 ts13 BHK tk cells (ATCC CRL-1632) are plated on 100mm dishes in DMEM + 10% calf serum. For each transfection 1 µg of pSV2neo and 10µg of a pCMV construct (pCMV, pCMV:TK-wrong (HSVTK in the wrong orientation relative to the promoter), pCMV:HSVTK, pCMV:30, pCMV:75 or pCMV:132 DNA) in 0.25M CaCl2 are mixed with 0.5ml 2 x BBS (see Chen and Okayama) and preincubated at 37°C at 2.5% CO2 for […]. The CaCl2/DNA mix is added dropwise to the plates and mixed in well. After a 24 hour incubation at 37°C in a 2.5% CO2 wet incubator, the cells are rinsed twice with Dulbecco PBS minus Ca/Mg and fed with fresh DMEM + 10% calf serum. Plates are incubated at 37°C with 6% CO2. After 72 hours post-transfection the cells are split 1:3 and plated in DMEM + 10% calf serum containing G418 at 600µg/ml.
(§2) The cells are selected on G418 (600µg/ml) at 37°C for 17 days. […]. Approximately 30-40 clones are selected in this manner for each transfected DNA containing a tk gene in the correct orientation. The pCMV and pCMV:TK-wrong transfections yielded between 130 and 140 clones each. G418 resistant clones are harvested, pooled and plated at a density of 2000 cells/well in 100µl DMEM + 10% calf serum and 200µg/ml G418 + 6% CO2 in 96 well microtiter plates. […]. After three days in the presence of the nucleoside analog, Alamar Blue is added and 6 hours later the plates are scanned using a fluorometer as according to the manufacturer's protocol (Alamar Biosciences, Inc., Sacramento, CA). The plates are incubated a further 24 hours at 37°C and scanned again.
(§3) Determination of the fluorescence level of cells incubated in the presence of Alamar Blue directly relates to cell viability.

[2] = system: ts13 BHK tk- cells transfected with pCMV:30 (HSV-1 TK mutant 30)
Procedure: as §1, §2, §3

[3] = system: ts13 BHK tk- cells transfected with pCMV:75 (HSV-1 TK mutant 75)
Procedure: as §1, §2, §3

[4] = system: ts13 BHK tk- cells transfected with pCMV:HSVTK (wild-type HSV-1 TK)
Procedure: as §1, §2, §3

## Nc1nc2c(ncn2COCCO)c(=O)[nH]1 [acyclovir]
[1]
  IC50: 25 µM
[2]
  IC50: 18 µM
[3]
  IC50: 1.25 µM
[4]
  IC50: 25 µM
